Source: ChEMBL document CHEMBL1201862, “PubChem BioAssay data set” (2004)
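Grown in 96-well plates, cells were treated for 48 hours with each compound at five concentrations. Insufficient inhibition: endpoint recorded as highest concentration tested. GI50 is the concentration that inhibits growth by half.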 Activity calls are given as the source filed them. No stated cut-off is given here; in the data, active = GI50 up to about 1.1 µM and inactive = higher.

Key:
Experiment in all cases: NCI-60 cell line screen, 48 h
SF-295 = tested on: SF-295
NCI-H522 = tested on: NCI-H522
HL-60 = tested on: HL-60
MDA-MB-231 = tested on: MDA-MB-231
UACC-257 = tested on: UACC-257
TK-10 = tested on: TK-10
Malme-3M = tested on: Malme-3M
SW-620 = tested on: SW-620
HCT-15 = tested on: HCT-15
CAKI-1 = tested on: CAKI-1
U-251 = tested on: U-251
SF-268 = tested on: SF-268
SK-MEL-2 = tested on: SK-MEL-2
NCI/ADR-RES = tested on: NCI/ADR-RES
CCRF-CEM = tested on: CCRF-CEM
HT-29 = tested on: HT-29
OVCAR-8 = tested on: OVCAR-8
SK-MEL-5 = tested on: SK-MEL-5
ACHN = tested on: ACHN
HOP-62 = tested on: HOP-62

SMILES	GI50 (SF-295)	GI50 (NCI-H522)	GI50 (HL-60)	GI50 (MDA-MB-231)	GI50 (UACC-257)	GI50 (TK-10)	GI50 (Malme-3M)	GI50 (SW-620)	GI50 (HCT-15) [µM]	GI50 (CAKI-1)	GI50 (U-251)	GI50 (SF-268)	GI50 (SK-MEL-2)	GI50 (NCI/ADR-RES)	GI50 (CCRF-CEM)	GI50 (HT-29)	GI50 (OVCAR-8)	GI50 (SK-MEL-5)	GI50 (ACHN)	GI50 (HOP-62)
Cc1ccc(-n2cc(-c3ccc(Cl)cc3)c3c2N=CN2N=C(c4cccs4)NC32)cc1 (stereo not given)	9.18 µM (inactive)	21.6 µM (inactive)	19.1 µM (inactive)	4.52 µM (inactive)	38.9 µM (inactive)	11.2 µM (inactive)	38.4 µM (inactive)	14.4 µM (inactive)	51.8	16 µM (inactive)	4.81 µM (inactive)	17.8 µM (inactive)	13.1 µM (inactive)	9.68 µM (inactive)	11.2 µM (inactive)	23 µM (inactive)	6.46 µM (inactive)	> 100 µM (inactive)	5.07 µM (inactive)	15.7 µM (inactive)
C1=C\SS/C=C\SS/C=C\SS/C=C\SS/1	45.3 µM (inactive)	15.2 µM (inactive)	24.9 µM (inactive)	> 100 µM (inactive)	78.5 µM (inactive)	> 100 µM (inactive)	41.7 µM (inactive)	51.4 µM (inactive)	21.5	30.3 µM (inactive)	81.8 µM (inactive)	70.8 µM (inactive)	> 100 µM (inactive)	> 100 µM (inactive)	10.2 µM (inactive)	31.6 µM (inactive)	44.8 µM (inactive)	99.3 µM (inactive)	> 100 µM (inactive)	69.7 µM (inactive)
O[C@H]1[C@H](O)[C@@H](Cn2nnc(-c3ccccc3)c2-c2ccccc2)OCO[C@@H]1Cn1nnc(-c2ccccc2)c1-c1ccccc1	3.78 µM (inactive)	5.31 µM (inactive)	3.88 µM (inactive)	6.47 µM (inactive)	4.32 µM (inactive)	5.14 µM (inactive)	9.42 µM (inactive)	5.22 µM (inactive)	3.1	5.73 µM (inactive)	3.73 µM (inactive)	4.85 µM (inactive)	3.15 µM (inactive)	7.24 µM (inactive)	3.53 µM (inactive)	2.26 µM (inactive)	4.01 µM (inactive)	4.32 µM (inactive)	3.63 µM (inactive)	13.1 µM (inactive)
c1ccc(C[n+]2cccc(-c3cc4ccccc4[nH]3)c2)cc1	77.8 µM (inactive)	16.4 µM (inactive)	17.6 µM (inactive)	37.2 µM (inactive)	14.9 µM (inactive)	32.7 µM (inactive)	14.6 µM (inactive)	72.6 µM (inactive)	> 100	> 100 µM (inactive)	34.5 µM (inactive)	17.6 µM (inactive)	16.6 µM (inactive)	> 100 µM (inactive)	19.9 µM (inactive)	32.5 µM (inactive)	38.3 µM (inactive)	10.6 µM (inactive)	> 100 µM (inactive)	31.8 µM (inactive)
Cc1cc2nc3c(C#N)c4c(c(Nc5ccc(F)cc5)n3c2cc1C)CCC4	> 100 µM (inactive)	95.5 µM (inactive)	> 100 µM (inactive)	> 100 µM (inactive)	> 100 µM (inactive)	> 100 µM (inactive)	52.2 µM (inactive)	> 100 µM (inactive)	> 100	> 100 µM (inactive)	> 100 µM (inactive)	> 100 µM (inactive)	> 100 µM (inactive)	> 100 µM (inactive)	> 100 µM (inactive)	> 100 µM (inactive)	> 100 µM (inactive)	> 100 µM (inactive)	> 100 µM (inactive)	> 100 µM (inactive)
C[N+]1(CCC(=O)c2ccccc2)CCC2CCC(C2)C1 (stereo not given)	> 100 µM (inactive)	> 100 µM (inactive)	> 100 µM (inactive)	> 100 µM (inactive)	> 100 µM (inactive)	> 100 µM (inactive)	> 100 µM (inactive)	> 100 µM (inactive)	> 100	> 100 µM (inactive)	> 100 µM (inactive)	> 100 µM (inactive)	> 100 µM (inactive)	> 100 µM (inactive)	> 100 µM (inactive)	> 100 µM (inactive)	> 100 µM (inactive)	> 100 µM (inactive)	> 100 µM (inactive)	> 100 µM (inactive)
Cc1ccc(C)c2c1CC(Cc1ccccc1C(=O)O)C2=O (stereo not given)	> 100 µM (inactive)	> 100 µM (inactive)	> 100 µM (inactive)	> 100 µM (inactive)	> 100 µM (inactive)	> 100 µM (inactive)	> 100 µM (inactive)	> 100 µM (inactive)	> 100	> 100 µM (inactive)	> 100 µM (inactive)	> 100 µM (inactive)	> 100 µM (inactive)	> 100 µM (inactive)	> 100 µM (inactive)	> 100 µM (inactive)	> 100 µM (inactive)	> 100 µM (inactive)	> 100 µM (inactive)	> 100 µM (inactive)
O=C(O)c1cc2ccccc2c(/N=N\c2cc(C(F)(F)F)ccc2Cl)c1O	47.6 µM (inactive)	> 100 µM (inactive)	21.8 µM (inactive)	18.3 µM (inactive)	67.6 µM (inactive)	> 100 µM (inactive)	37.4 µM (inactive)	> 100 µM (inactive)	83.8	94.8 µM (inactive)	27.5 µM (inactive)	> 100 µM (inactive)	25.4 µM (inactive)	76.2 µM (inactive)	33.6 µM (inactive)	77.6 µM (inactive)	60.8 µM (inactive)	25.5 µM (inactive)	46.5 µM (inactive)	38.1 µM (inactive)
COC(=O)c1ccccc1C1CN=NC12Cc1cc(C)c(C)cc1C2=O (stereo not given)	37.5 µM (inactive)	14.3 µM (inactive)	21.8 µM (inactive)	27.2 µM (inactive)	14.5 µM (inactive)	25.8 µM (inactive)	52.4 µM (inactive)	51.6 µM (inactive)	32.7	61.2 µM (inactive)	41.6 µM (inactive)	28.9 µM (inactive)	49.7 µM (inactive)	23.6 µM (inactive)	24.1 µM (inactive)	29.4 µM (inactive)	54.6 µM (inactive)	18.7 µM (inactive)	40.2 µM (inactive)	78 µM (inactive)
CCOC(=O)/C=C(/OCC)[C@@H]1C(C(=O)c2ccc(Cl)cc2)[C@@H]1/C(=C\C(=O)OCC)OCC (stereo not given in full)	7.98 µM (inactive)	3.62 µM (inactive)	3.12 µM (inactive)	10.1 µM (inactive)	6.75 µM (inactive)	6.32 µM (inactive)	16.8 µM (inactive)	12.6 µM (inactive)	> 33	16.9 µM (inactive)	4.99 µM (inactive)	45 µM (inactive)	56.4 µM (inactive)	3.6 µM (inactive)	5.69 µM (inactive)	7.53 µM (inactive)	6.56 µM (inactive)	4.41 µM (inactive)	13.2 µM (inactive)	14.3 µM (inactive)
CCOP(=O)(OCC)C1=C(c2ccccc2)OC(N)=C(C#N)C1c1ccc(Cl)cc1 (stereo not given)	> 100 µM (inactive)	67.9 µM (inactive)	> 100 µM (inactive)	> 100 µM (inactive)	> 100 µM (inactive)	> 100 µM (inactive)	> 100 µM (inactive)	> 100 µM (inactive)	> 100	> 100 µM (inactive)	> 100 µM (inactive)	38.1 µM (inactive)	> 100 µM (inactive)	> 100 µM (inactive)	30.1 µM (inactive)	> 100 µM (inactive)	> 100 µM (inactive)	> 100 µM (inactive)	> 100 µM (inactive)	> 100 µM (inactive)
COc1ccc(C(C)NNC(=O)c2cc[n+]([BH2-]C#N)cc2)cc1OC (stereo not given)	> 100 µM (inactive)	> 100 µM (inactive)	> 100 µM (inactive)	> 100 µM (inactive)	> 100 µM (inactive)	> 100 µM (inactive)	> 100 µM (inactive)	> 100 µM (inactive)	> 100	> 100 µM (inactive)	> 100 µM (inactive)	> 100 µM (inactive)	> 100 µM (inactive)	> 100 µM (inactive)	> 100 µM (inactive)	> 100 µM (inactive)	> 100 µM (inactive)	> 100 µM (inactive)	> 100 µM (inactive)	> 100 µM (inactive)
CC[C@@]1(O)C(=O)OCc2c1cc1n(c2=O)Cc2cc3cc4c(cc3nc2-1)OCO4	< 0.001 µM (active)	0.00133 µM (active)	0.00133 µM (active)	0.357 µM (active)	0.054 µM (active)	0.502 µM (active)	0.00497 µM (active)	0.0032 µM (active)	0.0181	0.00173 µM (active)	< 0.001 µM (active)	< 0.001 µM (active)	0.0224 µM (active)	0.00175 µM (active)	< 0.001 µM (active)	0.00472 µM (active)	0.00189 µM (active)	0.00169 µM (active)	< 0.001 µM (active)	< 0.001 µM (active)
O=C(O)COc1cc(-c2ccccc2)nc2ccccc12	44.4 µM (inactive)	77.4 µM (inactive)	41.2 µM (inactive)	> 100 µM (inactive)	> 100 µM (inactive)	> 100 µM (inactive)	> 100 µM (inactive)	59.7 µM (inactive)	36.9	> 100 µM (inactive)	71.9 µM (inactive)	> 100 µM (inactive)	> 100 µM (inactive)	52.1 µM (inactive)	56.2 µM (inactive)	35.4 µM (inactive)	> 100 µM (inactive)	33.9 µM (inactive)	> 100 µM (inactive)	95.9 µM (inactive)
